# Test results taken from US8609690B2, “Aryl- and heteroarylcarbonyl derivatives of substituted nortropanes, medicaments containing such compounds and their use” (Boehringer Ingelheim International GmbH, priority 2008, dated 2013).
# Target: T1, 11β-HSD 1 (Homo sapiens, UniProt P28845)
# T1 construct: detecting cortisol generated from cortisterone by human liver microsomes; from tissue; host or cells: human liver microsomes
# Experiment: In vitro inhibition of 11β-HSD 1, HTRF detection of cortisol generated by human liver microsomes
# Type: biochemical
# Conditions: 1 μM test compound, 100% indicates no inhibition, zero or below zero indicates complete inhibition (relative to carbenoxolone)
# How it was run: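 Human liver microsomes with test compound were incubated 1 h at 37 °C in Tris buffer, pH 6.0, with 200 μM NADPH and 80 nM cortisone. Cortisol formed was detected by competitive HTRF immunoassay (665/615 nm ratio) and calibrated against a cortisol standard curve. Values are activities at 1 μM compound relative to carbenoxolone, where 100% indicates no inhibition.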
# T1 sequence (P28845 whole entry): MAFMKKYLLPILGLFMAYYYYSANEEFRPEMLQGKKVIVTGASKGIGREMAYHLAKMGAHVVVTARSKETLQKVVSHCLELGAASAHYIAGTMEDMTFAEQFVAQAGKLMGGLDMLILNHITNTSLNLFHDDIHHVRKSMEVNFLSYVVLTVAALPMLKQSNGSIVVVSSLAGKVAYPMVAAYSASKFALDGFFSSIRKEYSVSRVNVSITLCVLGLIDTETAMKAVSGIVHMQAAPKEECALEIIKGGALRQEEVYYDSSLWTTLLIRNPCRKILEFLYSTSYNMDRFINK
row,SMILES,"Inhibitory activity on 11β-HSD 1, % CTL"
1,"O=C(c1ccc2c(c1)OCCO2)N1[C@@H]2CC[C@H]1C[C@@H](c1cccnc1)C2 [Example 153, endo-(2,3-Dihydro-benzo[1,4]dioxin-6-yl)-(3-pyridin-3-yl-8-aza-bicyclo[3.2.1]oct-8-yl)-methanone]",−4 % CTL
2,COC(=O)c1ccc([C@H]2C[C@H]3CC[C@@H](C2)N3C(=O)c2ccc3c(c2)OCCO3)cc1 [Example 154],59 % CTL
3,"O=C(c1ccc2c(c1)OCCO2)N1[C@@H]2CC[C@H]1C[C@@H](c1ccc(Br)cc1)C2 [Example 155, endo-[3-(4-Bromo-phenyl)-8-aza-icyclo[3.2.1]oct-8-yl]-(2,3-dihydro-benzo[1,4]dioxin-6-yl)-methanone]",−17 % CTL
4,"COc1ccccc1[C@H]1C[C@H]2CC[C@@H](C1)N2C(=O)c1ccc2c(c1)OCCO2 [Example 156, endo-(2,3-Dihydro-benzo[1,4]dioxin-6-yl)-[3-(2-methoxy-phenyl)-8-aza-bicyclo[3.2.1]oct-8-yl]-methanone]",−13 % CTL
5,"O=C(c1ccc2c(c1)OCCO2)N1[C@@H]2CC[C@H]1C[C@@H](c1ccc3ccccc3c1)C2 [Example 157, endo-(2,3-Dihydro-benzo[1,4]dioxin-6-yl)-(3-naphthalen-2-yl-8-aza-bicyclo[3.2.1]oct-8-yl)-methanone]",38 % CTL
6,"O=C(O)c1ccc([C@H]2C[C@H]3CC[C@@H](C2)N3C(=O)c2ccc3c(c2)OCCO3)cc1 [Example 158, endo-4-[8-(2,3-Dihydro-enzo[1,4]dioxine-6-carbonyl)-8-aza-bicyclo[3.2.1]oct-3-yl]-benzoic acid]",86 % CTL
7,"O=C(c1ccc2c(c1)OCCO2)N1[C@@H]2CC[C@H]1C[C@@H](c1ccccc1O)C2 [Example 159, endo-(2,3-Dihydro-benzo[1,4]dioxin-6-yl)-[3-(2-hydroxy-phenyl)-8-aza-bicyclo[3.2.1]oct-8-yl]-methanone]",−55 % CTL
8,"O=C(c1ccc2c(c1)OCCO2)N1[C@@H]2CC[C@H]1C[C@@H](c1ccc(F)cc1F)C2 [Example 160, endo-[3-(2,4-Difluoro-phenyl)-8-aza-bicyclo[3.2.1]oct-8-yl]-(2,3-dihydro-benzo[1,4]dioxin-6-yl)-methanone]",−26 % CTL
9,"O=C(c1ccc2c(c1)OCCO2)N1[C@@H]2CC[C@H]1C[C@@H](c1c(F)cccc1F)C2 [Example 161, endo-[3-(2,6-Difluoro-phenyl)-8-aza-bicyclo[3.2.1]oct-8-yl]-(2,3-dihydro-benzo[1,4]dioxin-6-yl)-methanone]",−30 % CTL
10,"Cc1cc(C(F)F)n2nc(C(=O)N3[C@@H]4CC[C@H]3C[C@@H](c3ccc(F)cc3)C4)nc2n1 [Example 162, endo-(7-Difluoromethyl-5-methyl-[1,2,4]triazolo[1,5-a]pyrimidin-2-yl)-[3-(4-fluoro-phenyl)-8-aza-bicyclo[3.2.1]oct-8-yl]-methanone]",96 % CTL
11,"O=C(c1cc(Cl)c(O)c(Cl)c1)N1[C@@H]2CC[C@H]1C[C@@H](c1ccc(F)cc1)C2 [Example 163, endo-(3,5-Dichloro-4-hydroxy-phenyl)-[3-(4-fluoro-phenyl)-8-aza-bicyclo[3.2.1]oct-8-yl]-methanone]",−7 % CTL
12,"Cc1cc(C(=O)N2[C@@H]3CC[C@H]2C[C@@H](c2ccc(F)cc2)C3)cc(C)c1O [Example 164, endo-[3-(4-Fluoro-phenyl)-8-aza-bicyclo[3.2.1]oct-8-yl]-(4-hydroxy-3,5-dimethyl-phenyl)-methanone]",−29 % CTL
13,"COc1ccc(C(=O)N2[C@@H]3CC[C@H]2C[C@@H](c2ccc(F)cc2)C3)cc1Cl [Example 165, endo-(3-Chloro-4-methoxy-phenyl)-[3-(4-fluoro-phenyl)-8-aza-bicyclo[3.2.1]oct-8-yl]-methanone]",2 % CTL
